Results on seven compounds are retold here after PMC9569420 (Communications Biology, 2022).

For series [1], the target named is T1, NEK6 (Homo sapiens, UniProt Q9HC98).
T1 construct: purchased Reaction Biology Corporation
In words: HotSpot kinase assay. The class given is biochemical. Conditions: read-out: IC50 (M) of Control Compound. The method, then:
(§1) Kinase activity were performed by Reaction Biology Corporation using the “HotSpot” assay platform modified from the published procedure.

For series [2], the target named is T2, NEK7 (Homo sapiens, UniProt Q8TDX7).
T2 construct: purchased Reaction Biology Corporation
T2 sequence (Q8TDX7 whole entry): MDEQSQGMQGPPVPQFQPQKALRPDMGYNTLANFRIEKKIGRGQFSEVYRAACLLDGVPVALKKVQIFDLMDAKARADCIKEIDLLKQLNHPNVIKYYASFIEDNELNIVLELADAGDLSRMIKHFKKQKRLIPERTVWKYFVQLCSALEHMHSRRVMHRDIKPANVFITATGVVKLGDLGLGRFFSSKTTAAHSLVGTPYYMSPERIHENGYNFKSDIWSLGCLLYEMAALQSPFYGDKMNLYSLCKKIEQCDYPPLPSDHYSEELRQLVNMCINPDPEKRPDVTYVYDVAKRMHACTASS
Description: HotSpot kinase assay. Format: biochemical. The note with it: read-out: IC50 (M) of Control Compound. As to the method:
as §1

Series [3] has as its target T3, TRPM7/CHAK1 (Homo sapiens, UniProt Q96QT4).
T3 construct: purchased Reaction Biology Corporation
Description: HotSpot kinase assay. The class given is biochemical. Conditions: read-out: IC50 (M) of Control Compound. The method, then:
as §1

The target in series [4] is T4, WNK3 (Homo sapiens, UniProt Q9BYP7).
T4 construct: purchased Reaction Biology Corporation
Description: HotSpot kinase assay. The class given is biochemical. The note with it: read-out: IC50 (M) of Control Compound. The method, then:
as §1

The nature of series [5]: in vitro. The note with it: dog, MDCK-MDR1.
Series [6] concerns MDCK-MDR1 cell. Conditions: 5 µM.
The subject of series [7] is VSV-S. Format: cell-based, VSV pseudotyped with SARS-CoV-2 spike.
Series [8] relates to VSV-S. Format: cell-based, VSV pseudotyped with SARS-CoV-2 spike. The source holds these as a separate data set.
In series [9] the test system is VSV-S. The class given is cell-based, VSV pseudotyped with SARS-CoV-2 spike. This is another data set of the same source.
Series [10] relates to PtdS and Akt. Description: translocation of PtdS and Akt to the outer leaflet (microscopy), HSV-2 infected HaCat. The class given is cell-based, human. The note with it: 10µM.
Series [11] deals with PLSCR1. Format: cell-based, monkey. The note with it: 30 min; drugs 10 μM, immunoglobulins 10 μg/ml.
Series [12] concerns HaCat cells. In words: viability of confluent cells. The class given is cell-based, human. Conditions: 10 μM, 72 and 120 h.
In series [13] the test system is HaCat cells. In words: apoptosis assay (activated caspases, SYTOX Green). The class given is cell-based, human. Conditions: 10 µM, 24 h (Fig 2b source data). The method, then: Cell proliferation and viability were determined using the Cell Titer 96 Aqueous One Solution and optical density was determined using a SpectraMax M5e Molecular Devices multidetection microplate reader. […] The cells were then fixed and stained for activated caspases (red) and SYTOX Green (for integrity of plasma membrane) by Image-iT^TM LIVE red Poly Caspase Detection kit. Nuclei were stained with Hoechst. Images were acquired by laser confocal microscope ZeissLive/DuoScan equipped with oil immersion objectives 63 × 1.1 and captured in an optical slice of 0.37 µm with appropriate filters. Alternatively, immunoblots were prepared and probed with antibodies to cleaved PARP-1 or cleaved caspase 8.

The test system of series [14] is PLSCR1. In words: PLSCR1 phosphorylation (IP/western), HSV-2 infected HaCaT cells. The class given is cell-based, human. Conditions: 10 μM, 30 min.
Series [15] has as its system Primary vaginal epithelial cells. Description: cell proliferation and viability, ~50% confluent. Conditions: 1 μM, 120 h (Fig 1d source data).
Series [16] addresses T5, PDK3/PDHK3 (Homo sapiens, UniProt Q15120).
T5 construct: purchased Reaction Biology Corporation
Description: HotSpot kinase assay. Format: biochemical. Conditions: read-out: IC50 (M) of Control Compound. The method, then:
as §1

Series [17] deals with T6, DYRK4 (Homo sapiens, UniProt Q9NR20).
T6 construct: purchased Reaction Biology Corporation
T6 sequence (Q9NR20 whole entry): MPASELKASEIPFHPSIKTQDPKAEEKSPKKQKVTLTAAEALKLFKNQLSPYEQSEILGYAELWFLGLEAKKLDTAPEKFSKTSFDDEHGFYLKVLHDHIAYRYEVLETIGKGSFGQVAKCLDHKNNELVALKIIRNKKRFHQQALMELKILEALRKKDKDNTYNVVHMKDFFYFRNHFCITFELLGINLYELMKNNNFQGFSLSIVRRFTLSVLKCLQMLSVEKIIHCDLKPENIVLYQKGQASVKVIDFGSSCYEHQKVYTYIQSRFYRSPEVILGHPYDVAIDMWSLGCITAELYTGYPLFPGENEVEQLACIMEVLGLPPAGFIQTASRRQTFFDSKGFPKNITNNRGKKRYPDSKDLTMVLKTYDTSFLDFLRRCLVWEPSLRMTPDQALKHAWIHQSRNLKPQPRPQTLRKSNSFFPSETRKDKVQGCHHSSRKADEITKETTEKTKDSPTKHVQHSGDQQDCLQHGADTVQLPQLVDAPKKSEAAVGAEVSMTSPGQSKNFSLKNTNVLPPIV
Description: HotSpot kinase assay. Format: biochemical. Conditions: read-out: IC50 (M) of Control Compound. As to the method: as §1

In series [18] the target is T7, ZAK/MLTK (Homo sapiens, UniProt Q9NYL2).
T7 construct: purchased Reaction Biology Corporation
T7 sequence (Q9NYL2 whole entry): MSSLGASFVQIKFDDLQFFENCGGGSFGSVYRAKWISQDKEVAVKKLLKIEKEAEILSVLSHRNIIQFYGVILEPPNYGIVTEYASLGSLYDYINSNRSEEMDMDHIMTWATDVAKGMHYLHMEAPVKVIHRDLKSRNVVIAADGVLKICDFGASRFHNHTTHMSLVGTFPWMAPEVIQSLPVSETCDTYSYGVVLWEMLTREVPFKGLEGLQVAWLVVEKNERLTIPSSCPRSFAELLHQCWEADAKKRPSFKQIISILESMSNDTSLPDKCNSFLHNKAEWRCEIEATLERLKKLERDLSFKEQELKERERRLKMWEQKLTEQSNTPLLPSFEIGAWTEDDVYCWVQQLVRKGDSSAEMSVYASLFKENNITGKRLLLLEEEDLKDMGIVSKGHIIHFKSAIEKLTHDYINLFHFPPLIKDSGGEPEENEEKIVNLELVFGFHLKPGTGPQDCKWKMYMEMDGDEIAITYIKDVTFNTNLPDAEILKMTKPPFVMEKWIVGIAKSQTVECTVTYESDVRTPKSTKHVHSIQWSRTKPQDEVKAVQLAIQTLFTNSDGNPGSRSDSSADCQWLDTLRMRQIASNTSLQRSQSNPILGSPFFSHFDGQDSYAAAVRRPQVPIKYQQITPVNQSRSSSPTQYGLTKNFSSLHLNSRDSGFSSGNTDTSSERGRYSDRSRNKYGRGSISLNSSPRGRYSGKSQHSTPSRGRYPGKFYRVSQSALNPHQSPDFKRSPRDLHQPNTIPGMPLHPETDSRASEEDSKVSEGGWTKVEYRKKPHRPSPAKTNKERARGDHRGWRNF
In words: HotSpot kinase assay. Format: biochemical. Conditions: read-out: IC50 (M) of Control Compound. As to the method: as §1

Series [19] addresses T8, ARAF (Homo sapiens, UniProt P10398).
T8 construct: purchased Reaction Biology Corporation
In words: HotSpot kinase assay. The note with it: read-out: IC50 (M) of Control Compound. Format: biochemical. As to the method:
as §1

Series [20] addresses T9, PDK2/PDHK2 (Homo sapiens, UniProt Q15119).
T9 construct: purchased Reaction Biology Corporation
Description: HotSpot kinase assay. Format: biochemical. Conditions: read-out: IC50 (M) of Control Compound. As to the method: as §1

In series [21] the target is T10, PDK1/PDHK1 (Homo sapiens, UniProt Q15118).
T10 construct: purchased Reaction Biology Corporation
T10 sequence (Q15118 29-436): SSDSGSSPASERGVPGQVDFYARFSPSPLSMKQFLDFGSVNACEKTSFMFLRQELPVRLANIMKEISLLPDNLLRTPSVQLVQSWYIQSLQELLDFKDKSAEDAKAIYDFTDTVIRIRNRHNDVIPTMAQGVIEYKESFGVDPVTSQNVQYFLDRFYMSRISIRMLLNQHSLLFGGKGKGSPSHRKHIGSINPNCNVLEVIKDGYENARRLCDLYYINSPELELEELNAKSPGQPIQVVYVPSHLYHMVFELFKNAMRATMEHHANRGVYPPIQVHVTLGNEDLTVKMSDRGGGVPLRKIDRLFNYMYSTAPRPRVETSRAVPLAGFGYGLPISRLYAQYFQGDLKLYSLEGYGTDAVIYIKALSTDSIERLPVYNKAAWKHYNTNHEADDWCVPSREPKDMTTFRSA
In words: HotSpot kinase assay. Format: biochemical. Conditions: read-out: IC50 (M) of Control Compound. The method, then:
as §1

For series [22], the target named is T11, PDK4/PDHK4 (Homo sapiens, UniProt Q16654).
T11 construct: purchased Reaction Biology Corporation
T11 sequence (Q16654 whole entry): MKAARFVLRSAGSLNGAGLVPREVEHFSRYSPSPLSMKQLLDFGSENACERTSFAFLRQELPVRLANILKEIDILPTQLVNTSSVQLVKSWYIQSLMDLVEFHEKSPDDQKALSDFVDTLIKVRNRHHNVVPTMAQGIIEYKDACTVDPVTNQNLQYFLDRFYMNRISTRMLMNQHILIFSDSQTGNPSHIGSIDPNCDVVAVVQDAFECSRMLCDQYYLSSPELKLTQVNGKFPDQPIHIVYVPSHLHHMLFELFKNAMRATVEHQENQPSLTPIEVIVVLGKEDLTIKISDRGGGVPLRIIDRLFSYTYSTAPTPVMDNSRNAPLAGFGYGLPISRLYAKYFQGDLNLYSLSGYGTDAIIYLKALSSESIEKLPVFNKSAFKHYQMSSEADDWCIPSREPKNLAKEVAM
In words: HotSpot kinase assay. Format: biochemical. Conditions: read-out: IC50 (M) of Control Compound. As to the method: as §1

Series [23] deals with T12, CK2a (Homo sapiens, UniProt P68400).
T12 construct: purchased Reaction Biology Corporation
T12 sequence (P68400 whole entry): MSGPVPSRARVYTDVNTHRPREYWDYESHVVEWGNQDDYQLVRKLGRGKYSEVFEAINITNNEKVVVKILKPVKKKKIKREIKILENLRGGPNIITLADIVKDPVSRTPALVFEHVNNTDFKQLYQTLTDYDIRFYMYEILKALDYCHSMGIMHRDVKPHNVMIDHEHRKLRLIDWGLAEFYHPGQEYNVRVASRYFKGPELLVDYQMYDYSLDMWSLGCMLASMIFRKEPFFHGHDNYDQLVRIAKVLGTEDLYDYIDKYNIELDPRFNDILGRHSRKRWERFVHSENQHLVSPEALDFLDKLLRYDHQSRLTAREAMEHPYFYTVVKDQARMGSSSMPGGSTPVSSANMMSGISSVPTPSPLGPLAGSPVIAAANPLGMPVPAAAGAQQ
In words: HotSpot kinase assay. The note with it: read-out: IC50 (M) of Control Compound. The class given is biochemical. As to the method:
as §1

Several values for one entry are separate records, joined by “and”; a condition that tells them apart may be missing. Identical values can stand only once. Counter-ions that a name gives are not always drawn. Like-named read-outs stand apart in the source and are kept apart here.

T5 sequence (Q15120 whole entry): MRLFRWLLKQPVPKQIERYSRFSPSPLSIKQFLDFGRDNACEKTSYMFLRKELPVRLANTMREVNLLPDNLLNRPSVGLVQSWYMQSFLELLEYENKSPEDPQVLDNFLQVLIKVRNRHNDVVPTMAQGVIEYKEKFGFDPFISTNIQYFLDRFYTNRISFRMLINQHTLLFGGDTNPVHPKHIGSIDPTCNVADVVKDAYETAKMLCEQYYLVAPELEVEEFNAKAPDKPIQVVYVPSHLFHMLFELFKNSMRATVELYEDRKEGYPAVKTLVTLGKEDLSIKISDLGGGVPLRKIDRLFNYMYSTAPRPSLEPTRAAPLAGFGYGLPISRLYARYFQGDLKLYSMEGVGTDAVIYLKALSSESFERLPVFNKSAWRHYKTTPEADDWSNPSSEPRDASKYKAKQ
T8 sequence (P10398 whole entry): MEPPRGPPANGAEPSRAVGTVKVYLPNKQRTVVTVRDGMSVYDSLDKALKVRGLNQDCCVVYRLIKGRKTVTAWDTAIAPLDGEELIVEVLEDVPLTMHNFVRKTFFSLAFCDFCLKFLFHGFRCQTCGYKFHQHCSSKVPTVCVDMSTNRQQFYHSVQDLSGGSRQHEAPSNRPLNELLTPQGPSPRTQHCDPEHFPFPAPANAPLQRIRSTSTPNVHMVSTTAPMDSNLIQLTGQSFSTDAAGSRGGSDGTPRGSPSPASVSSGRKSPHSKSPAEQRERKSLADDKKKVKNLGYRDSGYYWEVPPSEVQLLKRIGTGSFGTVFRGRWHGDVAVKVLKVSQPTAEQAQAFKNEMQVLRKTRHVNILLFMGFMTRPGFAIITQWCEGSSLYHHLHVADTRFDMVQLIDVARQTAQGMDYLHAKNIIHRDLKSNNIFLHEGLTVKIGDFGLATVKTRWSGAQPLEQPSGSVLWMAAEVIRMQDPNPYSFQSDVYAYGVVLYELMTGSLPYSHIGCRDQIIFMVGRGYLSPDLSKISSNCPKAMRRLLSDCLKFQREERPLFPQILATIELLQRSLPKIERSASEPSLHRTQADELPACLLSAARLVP
T1 sequence (Q9HC98 whole entry): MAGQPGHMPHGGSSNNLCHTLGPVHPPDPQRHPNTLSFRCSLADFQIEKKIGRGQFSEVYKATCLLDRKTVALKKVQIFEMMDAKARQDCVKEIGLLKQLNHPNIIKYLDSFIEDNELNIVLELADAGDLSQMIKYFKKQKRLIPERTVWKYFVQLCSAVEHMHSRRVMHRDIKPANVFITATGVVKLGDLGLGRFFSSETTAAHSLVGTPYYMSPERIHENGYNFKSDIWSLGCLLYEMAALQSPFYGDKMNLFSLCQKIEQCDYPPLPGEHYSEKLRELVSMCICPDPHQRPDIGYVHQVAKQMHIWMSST

Turning to `O=C1Nc2ccc3ncsc3c2/C1=C/c1cnc[nH]1` [PKR Inhibitor, reference compound], the IC50 stood at 9.32e-06 M in [1] and 8.35e-06 M in [2].

For the compound `CCCCCCCCCCCCCCCCn1cc[n+](Cc2ccccc2)c1C` [NH125, reference compound], in [3], the half-inhibitory concentration (IC50) came to 2.34e-05 M.

On to `O=C1NC(=O)c2c1c(-c1ccccc1Cl)cc1[nH]c3ccc(O)cc3c21` [Wee-1 Inhibitor, reference compound], for which, in [4], the IC50 came out at 1.49e-06 M.

Regarding `C[C@H]1O[C@@H](O[C@H]2[C@@H](O)C[C@H](O[C@H]3[C@@H](O)C[C@H](O[C@H]4CC[C@@]5(C)[C@H](CC[C@@H]6[C@@H]5C[C@@H](O)[C@]5(C)[C@@H](C7=CC(=O)OC7)CC[C@]65O)C4)O[C@@H]3C)O[C@@H]2C)C[C@H](O)[C@@H]1O` [Digoxin], the Papp at 1 h, 5 μM in series [5] is 3.1 ×10⁻⁶ cm/s. Moreover, the Recover % in [6] stood at 96%.

On to `CN(C)C(=O)COC(=O)Cc1ccc(OC(=O)c2ccc(NC(=N)N)cc2)cc1` [camostat mesylate], for which the VSV-S infection result in series [7], in [8] and in series [9] was “inhibited” each time. For the same compound, the “infectious viral yields relative to DMSO control” value in series [7] is 84.6 and 82.05; in [7] (conc 1), 28.2 and 41.02; in series [7] (conc 50), 7.6. Also, the “VSV-S plaques relative to DMSO control” value in series [8] (conc 100) was 36.1 and 46.6 and 29.7 and 43.

`CN[C@@H]1C[C@H]2O[C@@](C)([C@@H]1OC)n1c3ccccc3c3c4c(c5c6ccccc6n2c5c31)C(=O)NC4` [Staurosporine, reference compound]: the “translocation of PtdS and Akt to the outer leaflet of the plasma membrane” value in series [10] was “inhibited”. Besides, the “Phosphorylation of PLSCR1” value in series [11] and in series [14] was “inhibited” each time. In series [12], the cytotoxicity result is listed as “completely cytotoxic”. For the same compound, the “Activated caspase positive (percentage of cells)” value in [13] is 100% and 75% and 87.5%. For the same compound, the “SYTOX green positive (percentage of cells)” value in series [13] is 75% and 88.8% and 91.6%. Also, the “cell proliferation and viability, odu as a percentage of the DMSO control” value in series [15] was 39.5% and 67.5%.

`O=C1Nc2ccc(I)cc2/C1=C/c1cc(Br)c(O)c(Br)c1` [GW5074, reference compound]: the IC50 in [16] came to 2.57e-06 M; in series [17], 4.12e-06 M; in series [18] it was 1.89e-06 M; in series [19], 1.39e-08 M; in series [20] it was 5.05e-06 M; in [21], 8.63e-06 M. Moreover, the figures for the IC50 in series [22] and in [23] were 1.89e-06 M and 2.67e-07 M, respectively.
